Measured values as given in ChEMBL document CHEMBL5725459, “(R)-2-methyl-piperazine derivatives as CXCR3 receptor modulators” (2018).

Each compound was assayed against T1, C-X-C chemokine receptor type 3 (Homo sapiens, UniProt P49682) (assay: Receptor Internalization Assay (RIA): Stock solutions of test compounds are made up at a concentration of 10 mM in DMSO, and serially diluted in PBS containing 0.5% BSA to concentrations required for inhibition dose response curves. Diluted compounds are then mixed with an equal volume of CXCL10 (Peprotech) diluted in PBS. Anticoagulated venous human whole blood is added to the mixture, which is then incubated in a CO2 incubator at 37° C. to allow for ligand mediated receptor internalization (final CXCL10 concentration is 9 nM). After 30 min, the blood is mixed with fluorescently labeled CXCR3 and CD4 specific antibodies (Becton Dickinson) and incubated on ice for 10 minutes. Samples are then mixed with BD FACS Lysing Solution (Becton Dickinson) in order to eliminate red blood cells. After washing the cells with PBS containing 0.5% BSA, the samples are then analyzed in a flow cytometer (FACS Canto II, Becton Dickinson). For data analysis using FACSDiva software (Becton Dickinson), the mean fluorescence corresponding to CXCR3 cell surface expression was determined on CD4 positive cells. The calculated IC50 values may fluctuate depending on the daily assay performance. Fluctuations of this kind are known to those skilled in the art. In the case where IC50 values have been determined several times for the same compound, mean values are given.).
T1 sequence (P49682 whole entry): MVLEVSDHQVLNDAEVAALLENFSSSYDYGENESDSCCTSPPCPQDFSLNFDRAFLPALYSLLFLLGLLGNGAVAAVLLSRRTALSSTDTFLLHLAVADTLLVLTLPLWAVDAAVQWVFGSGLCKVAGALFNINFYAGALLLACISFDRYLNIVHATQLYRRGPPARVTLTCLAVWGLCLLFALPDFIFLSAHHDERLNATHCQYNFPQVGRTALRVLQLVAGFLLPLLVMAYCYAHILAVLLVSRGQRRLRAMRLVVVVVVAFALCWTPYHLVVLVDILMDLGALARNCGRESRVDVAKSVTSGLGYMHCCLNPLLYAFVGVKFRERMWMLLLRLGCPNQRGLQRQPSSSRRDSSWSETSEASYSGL

SMILES | IC50 [nM]
CC1CNCC(c2sc(C(F)(F)F)cc2-c2cnc(C(F)(F)F)nc2)N1C(=O)Cn1cnc(CO)n1 (centres undefined) | 809
CC(C)c1ncn(CC(=O)N2C(C)CNCC2c2sc(C(F)(F)F)cc2-c2cnc(C(F)(F)F)nc2)n1 (centres undefined) | 174
CCOc1ncc(-c2cc(C(F)(F)F)sc2C2CNCC(C)N2C(=O)Cn2cnc(C)n2)cn1 (centres undefined) | 211
CC(C)c1ncn(CC(=O)N2C(C)CNCC2c2sc(C(F)(F)F)cc2-c2cnc(C3CC3)nc2)n1 (centres undefined) | 524
CC1CNCC(c2sc(C(F)(F)F)cc2-c2cnc(C(F)(F)F)nc2)N1C(=O)Cn1cnc(C(N)=O)n1 (centres undefined) | 1710
CCOc1ncc(-c2cc(C(F)(F)F)sc2C2CNCC(C)N2C(=O)Cn2cnc(C(C)(C)C)n2)cn1 (centres undefined) | 552
CC1CNCC(c2sc(C(F)(F)F)cc2-c2cnc(C(F)(F)F)nc2)N1C(=O)Cn1cnc(C(C)(C)O)n1 (centres undefined) | 830
CCOc1ncc(-c2cc(C(F)(F)F)sc2C2CNCC(C)N2C(=O)Cn2cnc(C(C)C)n2)cn1 (centres undefined) | 299
CC1CNCC(c2sc(C(F)(F)F)cc2-c2cnc(C3CC3)nc2)N1C(=O)Cn1cnc(C(C)(C)C)n1 (centres undefined) | 679
Cc1ncn(CC(=O)N2C(C)CNCC2c2sc(C(F)(F)F)cc2-c2cnc(C(F)(F)F)nc2)n1 (centres undefined) | 189
CC1CNCC(c2sc(C(F)(F)F)cc2-c2cnc(C(F)(F)F)nc2)N1C(=O)Cn1cnc(C(C)(C)C)n1 (centres undefined) | 349
COCc1ncn(CC(=O)N2C(C)CNCC2c2sc(C(F)(F)F)cc2-c2cnc(C(F)(F)F)nc2)n1 (centres undefined) | 606
Cc1ncn(CC(=O)N2C(C)CNCC2c2sc(C(F)(F)F)cc2-c2cnc(C3CC3)nc2)n1 (centres undefined) | 462
CCc1ncn(CC(=O)N2C(C)CNCC2c2sc(C(F)(F)F)cc2-c2cnc(C3CC3)nc2)n1 (centres undefined) | 190
CCOc1ncc(-c2cc(C(F)(F)F)sc2C2CNCC(C)N2C(=O)Cn2cnc(COC)n2)cn1 (centres undefined) | 950
CCOc1ncc(-c2cc(C(F)(F)F)sc2C2CNCC(C)N2C(=O)Cn2cnc(CC)n2)cn1 (centres undefined) | 235
COCc1ncn(CC(=O)N2C(C)CNCC2c2sc(C(F)(F)F)cc2-c2cnc(C3CC3)nc2)n1 (centres undefined) | 1390
CCc1ncn(CC(=O)N2C(C)CNCC2c2sc(C(F)(F)F)cc2-c2cnc(C(F)(F)F)nc2)n1 (centres undefined) | 148
CCCc1ncn(CC(=O)N2C(C)CNCC2c2sc(C(F)(F)F)cc2-c2cnc(C(F)(F)F)nc2)n1 (centres undefined) | 221
